Measured values reported in patent US20220280471A1, “Treatment of Affective Disorders” (Vanda Pharmaceuticals Inc., priority 2017, published 2022).

System: patients with MDD
Test: Double-masked, placebo-controlled clinical study of tasimelteon in patients with MDD (NCT01428661), Hamilton Depression Scale
Format: in vivo, human
Method: A large clinical study was conducted to evaluate the effects of tasimelteon on depressive symptoms in patients with MDD. Details of the study design are set out in study number NCT01428661, available at clinicaltrials.gov. Aspects of the study relevant to the claimed invention are described below.
A total of 507 patients with MDD were enrolled in a double-masked, placebo-controlled study randomized on either tasimelteon 20 mg (n=254) or placebo (n=253). Patients were assessed at baseline and weekly for eight weeks on a number of depression scales, including the Hamilton Depression Scale (HAMD).

CCC(=O)NC[C@@H]1C[C@H]1c1cccc2c1CCO2 (relative stereo) [Tasimelteon, trans-N-[[2-(2,3-dihydrobenzofuran-4-yl)cycloprop-1yl]methyl] propanamide]
improvement on the HAMD scale (African-American MDD patients, at eight weeks, tasimelteon 20 mg (n=78), p=0.018 vs placebo): 9.9 points
responder analysis (improvement in the HAMD scale of 50% or greater from baseline), patients showing improvement (African-American MDD patients, at eight weeks, tasimelteon 20 mg, p=0.0019 vs placebo): 59%
improvement from baseline on the HAMD scale (all randomized MDD patients, tasimelteon 20 mg (n=254), p=0.57 vs placebo): 8.1 points
